Results on twelve compounds are retold here after ChEMBL document CHEMBL1201862, “PubChem BioAssay data set” (2004).

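Results reflect a 48-hour exposure of cells in 96-well plates to compound at five concentrations. At the GI50, growth is halved.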 Active and inactive are the calls of the source. Rule as the data show it: active = GI50 up to about 1.1 µM and inactive = higher.

Some test systems named below: KM12; NCI-H226; HOP-62; RPMI-8226; U-251; M14; Malme-3M; HCT-116; HT-29; OVCAR-5; SN12C; SW-620; NCI-H522; COLO 205; SF-268; NCI-H460; DU-145; T47D; MDA-MB-435.
Assay in all cases: growth of human tumour cells (NCI), 48 h

Regarding `COc1ccc(-c2cn3ccsc3n2)cc1`, the GI50 was > 100 µM (inactive) with KM12; > 100 µM (inactive) in the experiment on NCI-H226; > 100 µM (inactive) in the experiment on HOP-62; 22.3 µM (inactive) in the experiment with RPMI-8226; 75.2 µM (inactive) with U-251; > 100 µM (inactive) in the experiment on M14. Also, the GI50 with Malme-3M is > 100 µM (inactive); with HCT-116, 45.4 µM (inactive); in the experiment on HT-29 it was 82.8 µM (inactive); with OVCAR-5, > 100 µM (inactive); in the experiment with SN12C, > 100 µM (inactive); in the experiment with SW-620, 11.2 µM (inactive). Further, the GI50 in the experiment with NCI-H522 was 65.3 µM (inactive); with COLO 205, 33.1 µM (inactive); in the experiment on SF-268, > 100 µM (inactive); in the experiment on NCI-H460 it was 87.7 µM (inactive).

On to `O=C(CC(=O)Nc1ccccc1O)Nc1ccccc1O`, for which the GI50 in the experiment on KM12 was 10.8 µM (inactive); with NCI-H226, 63.1 µM (inactive); in the experiment on HOP-62, 80.9 µM (inactive); in the experiment on RPMI-8226, 5.13 µM (inactive); in the experiment on U-251 it was 23.9 µM (inactive); in the experiment on M14 it was 16.1 µM (inactive). In addition, the GI50 is 22.8 µM (inactive) in the experiment with Malme-3M; 13.2 µM (inactive) in the experiment on HCT-116; 27.9 µM (inactive) in the experiment with HT-29; 59.4 µM (inactive) in the experiment on OVCAR-5; 16.3 µM (inactive) in the experiment with SN12C; 4.6 µM (inactive) in the experiment with SW-620. Also, the GI50 in the experiment with NCI-H522 was 7.48 µM (inactive); in the experiment on COLO 205, 18.5 µM (inactive); in the experiment with SF-268 it was 26.9 µM (inactive); with NCI-H460, 18.3 µM (inactive).

On to `FC(F)(F)P1C2C=CC(CC2)C1(F)F` (configuration not stated), for which the GI50 in the experiment on KM12, in the experiment on NCI-H226, in the experiment on HOP-62, in the experiment with RPMI-8226, with U-251 and in the experiment with M14 was > 100 µM (inactive) in each case. The GI50 is > 100 µM (inactive) in the experiment on Malme-3M; > 100 µM (inactive) in the experiment with HCT-116; > 100 µM (inactive) in the experiment with HT-29; > 100 µM (inactive) with OVCAR-5; > 100 µM (inactive) with SN12C; 63.2 µM (inactive) in the experiment with SW-620. Further, the GI50 with NCI-H522, with COLO 205, with SF-268 and with NCI-H460 was > 100 µM (inactive) throughout.

For the compound `CCCCOCN/C(N)=N/C#N`, the GI50 with KM12 is 71.4 µM (inactive); with NCI-H226, > 100 µM (inactive); in the experiment on HOP-62 it was > 100 µM (inactive); in the experiment with RPMI-8226 it was > 100 µM (inactive); in the experiment with U-251, > 100 µM (inactive); with M14, > 100 µM (inactive). Besides, the GI50 with Malme-3M is > 100 µM (inactive); with HCT-116 it was > 100 µM (inactive); with HT-29, > 100 µM (inactive); with OVCAR-5 it was > 100 µM (inactive); in the experiment on SN12C, > 100 µM (inactive); in the experiment with SW-620, 18.2 µM (inactive). For the same compound, the GI50 is > 100 µM (inactive) in the experiment on NCI-H522, 38.3 µM (inactive) in the experiment with COLO 205, > 100 µM (inactive) in the experiment on SF-268 and > 100 µM (inactive) in the experiment with NCI-H460.

Regarding `NC(=O)C#CC#CC#CCO`, the GI50 in the experiment on KM12 is 3.31 µM (inactive); in the experiment with NCI-H226 it was 11.6 µM (inactive); in the experiment with HOP-62, 10.9 µM (inactive); with RPMI-8226, 2.05 µM (inactive); with U-251 it was 2 µM (inactive); in the experiment with M14, 1.98 µM (inactive). The GI50 in the experiment on Malme-3M is 1.96 µM (inactive); in the experiment on HCT-116, 1.28 µM (inactive); with HT-29, 2.39 µM (inactive); in the experiment on OVCAR-5, 18.9 µM (inactive); in the experiment with SN12C, 1.96 µM (inactive); in the experiment with SW-620, 1.51 µM (inactive). Further, the GI50 in the experiment with NCI-H522 is 0.15 µM (active); in the experiment with COLO 205, 1.23 µM (inactive); in the experiment with SF-268, 2.21 µM (inactive); in the experiment on NCI-H460 it was 5.96 µM (inactive).

With `O=[N+]([O-])c1ccc2nc3n(c2c1)C(c1c(F)cccc1F)SC3` (configuration not stated), the GI50 in the experiment with KM12 is > 100 µM (inactive); in the experiment with NCI-H226, > 100 µM (inactive); in the experiment on HOP-62, > 100 µM (inactive); in the experiment with RPMI-8226, > 10 µM (inactive); with U-251, > 100 µM (inactive); in the experiment on Malme-3M, > 100 µM (inactive). Further, the GI50 was > 100 µM (inactive) in the experiment on HCT-116; > 100 µM (inactive) in the experiment with HT-29; > 100 µM (inactive) in the experiment on DU-145; > 100 µM (inactive) in the experiment on OVCAR-5; > 100 µM (inactive) with SN12C; > 10 µM (inactive) in the experiment on T47D. Also, the GI50 in the experiment on SW-620 and with NCI-H460 was > 100 µM (inactive) in each case.

`c1csc(-c2cc(-c3cccs3)c(-c3ccsc3)s2)c1`: the GI50 with KM12 was 55.5 µM (inactive); in the experiment on NCI-H226, > 100 µM (inactive); in the experiment on HOP-62 it was > 100 µM (inactive); in the experiment with RPMI-8226, 96.2 µM (inactive); in the experiment on U-251, > 100 µM (inactive); in the experiment on MDA-MB-435, > 100 µM (inactive). Besides, the GI50 in the experiment with M14 is > 100 µM (inactive); with Malme-3M, > 100 µM (inactive); in the experiment on HCT-116 it was > 100 µM (inactive); in the experiment on HT-29 it was > 100 µM (inactive); with DU-145, > 100 µM (inactive); in the experiment on SN12C, 56.8 µM (inactive). Moreover, the GI50 with T47D is 17.6 µM (inactive); in the experiment with SW-620, > 100 µM (inactive); in the experiment with COLO 205, 55.5 µM (inactive); in the experiment on SF-268, > 100 µM (inactive); in the experiment on NCI-H460, > 100 µM (inactive).

With `CNc1ccc([N+](=O)[O-])c2c(NCCCN(C)C)ccnc12`, the GI50 in the experiment with KM12, in the experiment with NCI-H226, with HOP-62, with RPMI-8226, in the experiment with U-251 and in the experiment on M14 was > 100 µM (inactive) in each case. Besides, the GI50 in the experiment on Malme-3M, in the experiment on HCT-116, in the experiment with HT-29, in the experiment on OVCAR-5, with SN12C and in the experiment on SW-620 was > 100 µM (inactive) in each case. For the same compound, the GI50 with NCI-H522, in the experiment on COLO 205, with SF-268 and with NCI-H460 was > 100 µM (inactive) each time.

With `COC(=O)C(C(=O)C(=O)Nc1ccc([N+](=O)[O-])cc1)c1nc2cc(C)c(C)cc2nc1O` (configuration not stated), the GI50 in the experiment with KM12, in the experiment with NCI-H226, in the experiment with HOP-62, in the experiment on RPMI-8226, in the experiment with U-251 and in the experiment on M14 was > 100 µM (inactive) throughout. Besides, the GI50 in the experiment on Malme-3M, in the experiment with HCT-116, with HT-29, in the experiment on OVCAR-5, with SN12C and in the experiment with SW-620 was > 100 µM (inactive) in each case. For the same compound, the GI50 in the experiment on NCI-H522, in the experiment with COLO 205, in the experiment on SF-268 and in the experiment on NCI-H460 was > 100 µM (inactive) in each case.

In the case of `COc1ccc(CN=C(N)N)c2ccccc12`, the GI50 is 25.5 µM (inactive) in the experiment with KM12; 27.4 µM (inactive) in the experiment on NCI-H226; 0.78 µM (active) in the experiment on HOP-62; 31.6 µM (inactive) in the experiment with RPMI-8226; 16.4 µM (inactive) in the experiment with U-251; 37.1 µM (inactive) in the experiment on M14. Besides, the GI50 in the experiment with Malme-3M was 17.1 µM (inactive); in the experiment on HCT-116, 24.6 µM (inactive); in the experiment with HT-29, 15.8 µM (inactive); in the experiment with DU-145, 57.7 µM (inactive); with OVCAR-5 it was 22.8 µM (inactive); with SN12C, 14.9 µM (inactive). The GI50 in the experiment on T47D was 31.9 µM (inactive); in the experiment on SW-620, 41.2 µM (inactive); with NCI-H522, 34.3 µM (inactive); in the experiment on COLO 205, 15.8 µM (inactive); in the experiment with SF-268, 12.1 µM (inactive).

`C=CCn1c2ccccc2[n+]2cc([N+](=O)[O-])ccc12`: the GI50 is 40.1 µM (inactive) in the experiment on KM12; 25.9 µM (inactive) in the experiment with NCI-H226; 54.3 µM (inactive) with HOP-62; 31.9 µM (inactive) with U-251; 26.4 µM (inactive) in the experiment with MDA-MB-435; 36.3 µM (inactive) with M14. Further, the GI50 with Malme-3M is 15.8 µM (inactive); with HCT-116, 27.2 µM (inactive); in the experiment with HT-29, 18.3 µM (inactive); in the experiment on DU-145, 50.9 µM (inactive); with OVCAR-5, 74 µM (inactive); in the experiment on SN12C, 27.3 µM (inactive). For the same compound, the GI50 was 32.3 µM (inactive) in the experiment on T47D, 30.8 µM (inactive) in the experiment on SW-620, 16 µM (inactive) in the experiment on NCI-H522 and 12.3 µM (inactive) in the experiment on COLO 205.

For the compound `O=[N+]([O-])c1cccc(C(O)/C(=N/Nc2ccccc2)C2Nc3ccc([N+](=O)[O-])cc3N=C2O)c1` (configuration not stated), the GI50 was 27.8 µM (inactive) in the experiment with KM12; > 100 µM (inactive) in the experiment with NCI-H226; > 100 µM (inactive) with HOP-62; 43 µM (inactive) with RPMI-8226; 88.1 µM (inactive) with U-251; 42.1 µM (inactive) in the experiment on M14. The GI50 with Malme-3M is 95.9 µM (inactive); in the experiment with HCT-116 it was > 100 µM (inactive); with HT-29 it was 50.9 µM (inactive); with OVCAR-5, 49.3 µM (inactive); in the experiment on SN12C it was > 100 µM (inactive); with SW-620, 49.3 µM (inactive). The GI50 was 19.7 µM (inactive) in the experiment on NCI-H522, 61.1 µM (inactive) with COLO 205, 93.5 µM (inactive) in the experiment with SF-268 and 42.9 µM (inactive) with NCI-H460.
